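Interpolation was linear, between the two tested concentrations surrounding the appropriate level; five concentrations were tested over 48 hours in 96-well plates. GI50: concentration for 50% inhibition of growth. TGI denotes the concentration required for complete inhibition of growth.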
Columns and labels:
Assay in all cases: NCI tumour cell line growth inhibition, 48 h
[1] = tested on: 786-0 renal
[2] = tested on: A498 renal
[3] = tested on: A549 NSCLC
[4] = tested on: ACHN renal
[5] = tested on: BT-549 breast
[6] = tested on: CAKI-1 renal
[7] = tested on: CCRF-CEM leukemia
[8] = tested on: COLO 205 colon
[9] = tested on: DU-145 prostate
[10] = tested on: EKVX NSCLC
[11] = tested on: HCC-2998 colon
[12] = tested on: HCT-116 colon
[13] = tested on: HCT-15 colon
[14] = tested on: HL-60(TB) leukemia
[15] = tested on: HOP-62 NSCLC
[16] = tested on: HOP-92 NSCLC
[17] = tested on: HS 578T breast
[18] = tested on: HT29 colon
[19] = tested on: IGROV1 ovarian
[20] = tested on: K-562 leukemia
[21] = tested on: KM12 colon
[22] = tested on: LOX IMVI melanoma
[23] = tested on: M14 melanoma
[24] = tested on: MALME-3M melanoma
[25] = tested on: MCF7 breast
[26] = tested on: MDA-MB-231 breast
[27] = tested on: MDA-MB-435
[28] = tested on: MOLT-4 leukemia
[29] = tested on: NCI-H226 lung
[30] = tested on: NCI-H23 lung
[31] = tested on: NCI-H460 lung
[32] = tested on: NCI-H522 lung
[33] = tested on: NCI/ADR-RES ovarian
[34] = tested on: OVCAR-3 ovarian
[35] = tested on: OVCAR-4 ovarian
[36] = tested on: OVCAR-5 ovarian
[37] = tested on: OVCAR-8 ovarian
[38] = tested on: PC-3 prostate
[39] = tested on: RPMI-8226 leukemia
[40] = tested on: RXF 393 renal
[41] = tested on: SF-268 CNS
[42] = tested on: SF-295 CNS
[43] = tested on: SF-539 CNS
[44] = tested on: SK-MEL-2 melanoma
[45] = tested on: SK-MEL-28 melanoma
[46] = tested on: SK-MEL-5 melanoma
[47] = tested on: SK-OV-3 ovarian
[48] = tested on: SN12C renal
[49] = tested on: SNB-19 CNS
[50] = tested on: SNB-75 CNS
[51] = tested on: SR leukemia
[52] = tested on: SW-620 colon
[53] = tested on: T-47D breast
[54] = tested on: TK-10 renal
[55] = tested on: U251 CNS
[56] = tested on: UACC-257 melanoma
[57] = tested on: UACC-62 melanoma
[58] = tested on: UO-31 renal

Q: What does the source list for `O=C(Nc1cccc(Cl)c1)Nc1nccs1`?
A: GI50 [1]: 26.6 µM; TGI [1]: 63 µM; GI50 [2]: 12.8 µM; TGI [2]: 47.7 µM; GI50 [3]: 26.5 µM; TGI [3]: > 100 µM; GI50 [4]: 30.5 µM; TGI [4]: > 100 µM; GI50 [5]: 31.6 µM; TGI [5]: > 100 µM; GI50 [6]: 15.6 µM; TGI [6]: 43.5 µM; GI50 [7]: 27 µM; TGI [7]: > 100 µM; GI50 [8]: 16 µM; TGI [8]: 32.1 µM; GI50 [9]: 24.1 µM; TGI [9]: 65.2 µM; GI50 [10]: 19.8 µM; TGI [10]: 69.2 µM; GI50 [11]: 21.3 µM; TGI [11]: 51.2 µM; GI50 [12]: 26.8 µM; TGI [12]: > 100 µM; GI50 [13]: 20.5 µM; TGI [13]: > 100 µM; GI50 [14]: 28.1 µM; TGI [14]: 89.2 µM; GI50 [15]: 25.3 µM; TGI [15]: > 100 µM; GI50 [16]: 23.2 µM; TGI [16]: 65 µM; GI50 [17]: 15.3 µM; TGI [17]: 43.6 µM; GI50 [18]: 19.7 µM; TGI [18]: 46.6 µM; GI50 [19]: 16.4 µM; TGI [19]: 70.7 µM; GI50 [20]: 20.3 µM; TGI [20]: > 100 µM; GI50 [21]: 8.5 µM; TGI [21]: 37.5 µM; GI50 [22]: 26.9 µM; TGI [22]: > 100 µM; GI50 [23]: 30.2 µM; TGI [23]: > 100 µM; GI50 [24]: 22.7 µM; TGI [24]: 64.7 µM; GI50 [25]: 7.97 µM; TGI [25]: > 100 µM; GI50 [26]: 18 µM; TGI [26]: 41.8 µM; GI50 [27]: 4 µM; TGI [27]: 27.2 µM; GI50 [28]: 21.4 µM; TGI [28]: 82 µM; GI50 [29]: 38.7 µM; TGI [29]: > 100 µM; GI50 [30]: 19.7 µM; TGI [30]: 60.5 µM; GI50 [31]: 17.1 µM; TGI [31]: 42.4 µM; GI50 [32]: 13.8 µM; TGI [32]: 39.9 µM; GI50 [33]: 16.6 µM; TGI [33]: 58.9 µM; GI50 [34]: 20.2 µM; TGI [34]: 53.6 µM; GI50 [35]: 27.5 µM; TGI [35]: > 100 µM; GI50 [36]: 34.8 µM; TGI [36]: > 100 µM; GI50 [37]: 25.1 µM; TGI [37]: 84.8 µM; GI50 [38]: 24.6 µM; TGI [38]: 94.8 µM; GI50 [39]: 26 µM; TGI [39]: 79.3 µM; GI50 [40]: 22.6 µM; TGI [40]: 49.4 µM; GI50 [41]: 30 µM; TGI [41]: > 100 µM; GI50 [42]: 15.8 µM; TGI [42]: 39.5 µM; GI50 [43]: 20.6 µM; TGI [43]: 61.6 µM; GI50 [44]: 24.3 µM; TGI [44]: 52.1 µM; GI50 [45]: 31.8 µM; TGI [45]: > 100 µM; GI50 [46]: 15.2 µM; TGI [46]: 30.6 µM; GI50 [47]: 20.8 µM; TGI [47]: 63.9 µM; GI50 [48]: 37.1 µM; TGI [48]: > 100 µM; GI50 [49]: 36.6 µM; TGI [49]: > 100 µM; GI50 [50]: 20 µM; TGI [50]: 56.1 µM; GI50 [51]: 13.6 µM; TGI [51]: 46.7 µM; GI50 [52]: 26.6 µM; TGI [52]: > 100 µM; GI50 [53]: 12.7 µM; TGI [53]: 78 µM; GI50 [54]: 25.8 µM; TGI [54]: 60 µM; GI50 [55]: 18.2 µM; TGI [55]: 50.7 µM; GI50 [56]: 22.4 µM; TGI [56]: 61.8 µM; GI50 [57]: 20.4 µM; TGI [57]: 57.4 µM; GI50 [58]: 17.7 µM; TGI [58]: 53.6 µM
